In data set [1] the target is T1, thrombin (Homo sapiens, UniProt P00734).
T1 construct: 50 μl of 0.5 U thrombin (Sigma Co., USA); purchased Sigma Co., USA
Kind of data set: Thrombin time (plasma coagulation, thrombin inhibitory activity). The format is biochemical. As to conditions: 1.5 mg/ml; coagulation time of sample added group / DMSO added group. As to the method:
(§1) The blood coagulation inhibitory activity of Ganoderma lucidum fruiting body samples was evaluated according to the previously reported methods (Sohn et al., 2004. Kor. J. Pharmacogn 35. 52-61; Kwon et al., 2004. J Life Science, 14. 509-513; Ryu et al. 2010. J. Life Science, 20. 922-928). For this, thrombin time, prothrombin time and aPT time were measured. For plasma, commercially available control plasma (MD Pacific Technology Co., Ltd, Huayuan Industrial Area, China) was used, and thrombin time, prothrombin time, and aPT time measurements were performed in a manner described below.
At 37° C., 50 μl of 0.5 U thrombin (Sigma Co., USA), 50 μl of 20 mM CaCl2, and 10 μl of sample extracts of various concentrations were mixed in the tube of Amelung coagulometer KC-1 A (Japan), and reacted for 2 minutes, followed by addition of 100 μl of plasma. After the addition of plasma, the time until plasma coagulation was measured. As a control, aspirin (Sigma Co., USA) was used, and as a solvent control, DMSO was used instead of the sample. […]
The thrombin inhibitory activity was expressed with the average of the results of three or more repeated experiments, and the thrombin inhibitory activity was expressed as the value obtained by dividing the coagulation time upon addition of the sample by the coagulation time upon addition of the solvent control. […]

Data set [2] concerns blood coagulation factor. Briefly: aPTT (activated partial thromboplastin time), blood coagulation factor inhibitory activity. In kind it is biochemical. As to conditions: 1.5 mg/ml; coagulation time of sample added group / DMSO added group. The method, then: as §1
aPTT (Activated Partial Thromboplastin Time)
100 μl of plasma and 10 μl of sample extracts of various concentrations were added to the tube of Amelung coagulometer KC-1A (Japan) and warmed at 37° C. for 3 minutes. 50 μl of aPTT reagent (Sigma, ALEXIN™) was added thereto and incubated at 37° C. for 3 minutes. 50 μl of CaCl2 (35 mM) was added, and the time until plasma coagulation was measured. As a solvent control, DMSO was used instead of the sample, and in this case, the coagulation time was 55.1 seconds. The aPTT was expressed with the average of the results of three or more repeated experiments, and the blood coagulation factor inhibitory activity was expressed as the value obtained by dividing the aPTT upon addition of the same by the aPTT time upon addition of the solvent control. […]

Data set [3] has as its system prothrombin. Briefly: Prothrombin time (plasma coagulation, prothrombin inhibitory activity). In kind it is biochemical. The note with it: 1.5 mg/ml; coagulation time of sample added group / DMSO added group. As to the method: as §1
70 μl of standard plasma (MD Pacific Co., China) and 10 μl of sample solutions of various concentrations were added to the tube of Amelung coagulometer KC-1A (Japan) and warmed at 37° C. for 3 minutes, followed by addition of 130 μl of PT reagent. After the addition of the PT reagent, the time until coagulation was measured. The time was expressed with the average value of the results of three repeated experiments. As a control, aspirin (Sigma Co., USA) was used, and as a solvent control, DMSO was used instead of the sample. In the case of DMSO, the coagulation time was 18.1 seconds. The prothrombin inhibitory activity was expressed as the value obtained by dividing the coagulation time upon addition of the sample by the coagulation time of the solvent control. […]

Data set [4] relates to human erythrocytes. The method, then:
The hemolytic activity was evaluated according to the previous report (Son Ho-yong, 2014. Korean J. Microbiol. Biotechnol. 42: 285-292). Briefly, 100 μl of human red blood cells washed three times with PBS were placed in a 96-well microplate, 100 μl of sample solution of various concentrations was added thereto, the reaction was performed at 37° C. for 30 minutes, and the reaction solution was centrifuged at 1,500 rpm for 10 minutes, 100 μl of the supernatant was transferred to a new microtiter plate, and the degree of hemoglobin leakage due to hemolysis was measured at 414 nm. DMSO (2%) was used as a solvent control for the sample, and Triton X-100 (1 mg/ml) was used as a control for red blood cell hemolysis. Hemolytic activity was calculated using the following formula:
(%)Hemolysis=[(Abs.S−Abs.C)/(Abs.T−Abs.C)]×100 • Abs.S: Absorbance of sample added group • Abs.C: Absorbance of DMSO added group • Abs.T: Absorbance of Triton X-100 added group

The values below come from patent US20240131098A1, “PHARMACEUTICAL COMPOSITION AND HEALTH FUNCTIONAL FOOD CONTAINING EXTRACT OF FRUITING BODY OF GANODERMA LUCIDUM AS ACTIVE INGREDIENT FOR PREVENTION OR TREATMENT OF THROMBOSIS” (Andong National University Industry-Academic Cooperation …, priority 2022, published 2024).

Consider `CC(=O)Oc1ccccc1C(=O)O` [Aspirin, aspirin], for which the “Blood coagulation inhibitory activity, Thrombin time” value in data set [1] is listed as 1.45 ± 0.02. Further, the “Blood coagulation inhibitory activity, aPT time” value in data set [2] was 1.57 ± 0.11. Further, in data set [3], the “Blood coagulation inhibitory activity, Prothrombin time” value stood at 1.40 ± 0.00.
As for Triton X-100, the “Human erythrocyte coagulation activity(%)” value in data set [4] came to 0.4 ± 0.6%.
